Results from patent US20120208776A1 (priority 2002, published 2012).
Several values for one entry are separate records, joined by “and”; a condition that tells them apart may be missing. Identical values can stand only once. Like-named read-outs stand apart in the source and are kept apart here.

Columns and labels:
[1] = system: MDA-MB-453 cells; test: Combination of agents, MTT assay, combination index
Procedure: Calculating the Combination Index. To determine the Combination Index (CI), 1) the Na^+-K^+-ATPase enzyme or 2) MDA-MB-453 cells were exposed to all combinations of 3, 4 or 5 concentrations of each of the agents tested and a solvent control. […] The results of the enzymatic assay of ATPase or MTT assay were analyzed for possible synergistic effects using the median effect principle. Variable ratios of drugs were employed and mutually exclusive equations were assumed.
Calculating the Combination Index.
The simvastatin was obtained from Sigma of St. Louis, Mo. The concentrations tested in the present example were 0, 0.2, 2, 5, and 20 μg/ml actein and 0, 0.8, 4, 20 and 40 μg/ml simvastatin.

[2] = system: MDA-MB-453 cells; test: Western-blot analysis; format: cell-based, human; settings: for increase in level of p-Src: serum-starved MDA-MB-453, 80 μg/ml, 30 min; for IκB band intensity relative to β-actin / IκκB band intensity relative to β-actin / PPAR-γ band intensity relative to β-actin / p-Her2 level (WB) / cyclin D1 band intensity relative to β-actin: MDA-MB-453
Procedure: Cells were treated for increasing times with approximately the IC50 concentration, or twice the IC50 concentration, of actein. The cells were harvested, washed with PBS, and sonicated in extraction buffer according to the procedure of Han et al. (Han et al., Stable overexpression of cyclin D1 in a human mammary epithelial cell line prolongs the S-phase, and inhibits growth. Oncogene, 10:953-61, 1995). The lysates were subjected to electrophoresis on a 10% or 12.5% SDS-polyacrylamide gel, and then transferred to a polyvinylidene difluoride (PVDF) membrane. The membrane was blocked with milk protein, and incubated with a solution containing the primary antibody against the following: cyclin D1 (Upstate Biotechnology, Lake Placid, N.Y.), p21^cip1 (Oncogene Research Products, Darmstadt, Germany), ppRb (ser 780, Medical and Biological Laboratories, Nagoya, Japan), cdk4 (Upstate Biotechnology, Lake Placid, N.Y.), EGFR (clone-74, Transduction Laboratories, Lexington, Ky.), p-EGFR (phospho (Y1173)-EGFR) (Cell Signaling, Beverly, Mass.), actin (Sigma, St. Louis, Mo.), Her-2/neu (Cell Signaling, Beverly, Mass.), or phospho-(Y1248)-Her-2/neu (Cell Signaling, Beverly, Mass.)), IκB (Sant Cruz Biotechnolgy, Santa Cruz, Calif.), IκκB (Sigma, St. Louis, Mo.) and PPARγ (Santa Cruz biotechnology, Santa Cruz, Calif.) (Masuda et al., Epigallocatechin-3-gallate inhibits activation of HER-2/neu and downstream signaling pathways in human head and neck and breast carcinoma cells. Clin. Cancer Res., 9: 3486-91, 2003). The membrane was washed, and incubated with horseradish peroxidase conjugated secondary antibody.
Protein bands were visualized with the ECL-enhanced chemiluminescence system, according to the manufacturer's directions (Amersham Pharmacia Biotech) (Sgambato et al., Overexpression of p27 (Kip1) inhibits the growth of both normal and transformed human mammary epithelial cells. Cancer Research, 58:3448-54, 1998). The staining intensities of the visualized blots were quantified using NIH image software. For each protein, the relative band intensities were determined by comparing treated samples with untreated controls. These values were then normalized, using β-actin as an internal control.
Western blot analysis. […] To assay activation of p-Src, cells were allowed to attach for 24 h, incubated in media without serum for 24 h; the medium was replaced with media without serum with DMSO, actein or digtioxin.
Western blot analysis was performed as previously described. […] The membrane was incubated with the primary antibodies, cyclin D1 (Santa Cruz Biotechnology; Santa Cruz, Calif.), p-Src, Akt, p-Akt, ERK2 or p-Erk2 (Cell signaling, Beverly, Mass.); β-actin was used as a loading control.
Western blot analysis was performed as described previously.

[3] = system: MCF7 cells; test: MTT assay, 96 hours; format: cell-based, human
[4] = system: ERK2 in MDA-MB-453 cells; test: RNAi-mediated gene knockdown of ERK2 (MAPK1), growth inhibition; format: cell-based, human; settings: for cell proliferation: digitoxin 0.4 μg/ml, 24 hours; for inhibition at 20 µg/mL: Homo sapiens, MDA-MB-453, 48 h, actein 20 μg/ml, 48 h, read-out: percent growth inhibition
Procedure: RNAi-mediated gene knockdown. To test the functional relevance of ERK2 (p42/44MAPK pathway), the growth inhibitory effects of actein on MDA-MB-453 cells using the model system RNAi-mediated gene knockdown was examined. Cells were pretreated with siRNA to ERK2 (Hs/Mm MAPK1 siRNA) (Qiagen, Valencia, Calif.) for 24 h, then treated with actein at 20 μg/ml for 48 h, and the percent surviving cells was assayed. Western blot analysis was performed to confirm the ERK2 knockdown.

[5] = system: MDA-MB-453 cells; test: Cell-cycle analysis by DNA flow cytometry; format: cell-based, human; settings: for G1 / G2 / S / SubG1: 24 hours; for Sub G1 (%) / G1 (%) / G2/M (%) / S (%): 48 hrs
Procedure: Synchrony: To synchronize the cells, 3×10^5 cells were plated onto 10 cm dishes and grown for 2 days in DMEM supplemented with 10% fetal bovine serum.
After incubation for 1-3 days, the supernatant was collected, and the cells were trypsinized, collected, and washed with phosphate buffered saline (PBS) containing 5% FBS. Cell pellets were re-suspended in 1 ml of PBS plus 5% FBS. Thereafter, 5 ml of 70% ethanol were added drop-wise, while vortexing the tube, and the mixture was stored at 4° C. Cells were centrifuged, washed with PBS plus 5% FBS, and re-suspended in 400 μl of propidium iodide (0.1 mg/ml) (Sigma Chemical Co.). 400 μl (2 mg/ml) of RNase (Sigma Chemical Co.) were added, and the cells were incubated in the dark at room temperature for 30 min.

[6] = target: T1, Na^+-K^+-ATPase; test: Enzymatic assay of adenosine 5′-triphosphatase; format: biochemical; settings: read-out: IC50 (50% inhibition of Na^+-K^+-ATPase activity); purified enzyme, in vitro
T1 construct: Combination index; actein (μM); Combination index; actein; ATPase activity; other: actein 0.8 μM alone; other: digitox
Procedure: Enzymatic assay of adenosine 5′-triphosphatase. The enzymatic assay of ATPase (adenosine 5′-triphosphatase, EC 3.6.1.3) followed the Sigma Prod. […] [P] was determined by the Taussky-Shorr method.

[7] = Homo sapiens, MDA-MB-453, read-out: percent viable cells

C[C@H]1O[C@@H](O[C@H]2[C@@H](O)C[C@H](O[C@H]3[C@@H](O)C[C@H](O[C@H]4CC[C@@]5(C)[C@H](CC[C@@H]6[C@@H]5CC[C@]5(C)[C@@H](C7=CC(=O)OC7)CC[C@]65O)C4)O[C@@H]3C)O[C@@H]2C)C[C@H](O)[C@@H]1O [digitoxin]
viability at 0.01 µg/mL ([1]; Homo sapiens, MDA-MB-453, read-out: percent viable cells, digitoxin 0.01 μg/ml alone (actein study)): 62.8%
viability at 0.01 µg/mL ([1]; Homo sapiens, MDA-MB-453, read-out: percent viable cells, digitoxin 0.01 μg/ml alone (paclitaxel study)): 73%
increase in level of p-Src [2]: 1.5 fold
IC50 ([3]; Homo sapiens, MCF7, MCF7): 0.2 µg/mL
IC50 ([3]; Homo sapiens, MCF7, MCF7, unit inferred): 0.261 µM
IC50 ([3]; MCF7, unit inferred): 0.26 µM
cell proliferation ([4]; control siRNA): 96.0%
cell proliferation ([4]; siRNA to MAPK1): 76.9%
G1 ([5]; digitoxin 0.2 μg/mL): 46.50 (1.98) %
G2 ([5]; digitoxin 0.2 μg/mL): 19.05 (0.07) %
S ([5]; digitoxin 0.2 μg/mL): 27.65 (0.64) %
SubG1 ([5]; digitoxin 0.2 μg/mL, SD in parentheses): 6.77 (1.06) %
G1 ([5]; digitoxin 2.0 μg/mL): 41.90 (2.26) %
G2 ([5]; digitoxin 2.0 μg/mL): 32.10 (1.27) %
S ([5]; digitoxin 2.0 μg/mL): 17.80 (0.42) %
SubG1 ([5]; digitoxin 2.0 μg/mL): 5.78 (1.02) %
IC50 [6]: 0.8 µM

CC(=O)O[C@@H]1C[C@@]23C[C@@]24CC[C@H](O[C@@H]2OC[C@@H](O)[C@H](O)[C@H]2O)C(C)(C)[C@@H]4CC[C@H]3[C@]2(C)C[C@@H]3O[C@]4(C[C@@H](C)[C@@H]3[C@@]12C)O[C@H](O)[C@@]1(C)O[C@@H]41 [actein]
viability at 0.2 µg/mL [1, 7]: 97.8%
viability at 2 µg/mL [1, 7]: 75.8%
viability at 5 µg/mL [1, 7]: 70.9%
cell survival ([1]; actein 2 ug/ml alone (simvastatin study)): 68.2%
IκB band intensity relative to β-actin ([2]; 3 h, 20 μg/ml): 1.2 fold
IκκB band intensity relative to β-actin ([2]; 3 h, 20 μg/ml): 1.79 fold
PPAR-γ band intensity relative to β-actin ([2]; 3 h, 20 μg/ml): 1.39 fold
p-Her2 level (WB) ([2]; 3 h, 20 μg/ml): 0.71 fold
IκB band intensity relative to β-actin ([2]; 3 h, 40 μg/ml): 1.09 fold
IκκB band intensity relative to β-actin ([2]; 3 h, 40 μg/ml): 1.78 fold
PPAR-γ band intensity relative to β-actin ([2]; 3 h, 40 μg/ml): 0.93 fold and 0.92 fold
cyclin D1 band intensity relative to β-actin ([2]; 3 h, 40 μg/ml): 0.93 fold
p-Her2 level (WB) ([2]; 3 h, 40 μg/ml): 0.86 fold
IκκB band intensity relative to β-actin ([2]; 10 h, 20 μg/ml): 0.48 fold
IκκB band intensity relative to β-actin ([2]; 10 h, 40 μg/ml): 0.59 fold
IκB band intensity relative to β-actin ([2]; 24 h, 20 μg/ml): 0.81 fold
IκκB band intensity relative to β-actin ([2]; 24 h, 20 μg/ml): 1.06 fold
PPAR-γ band intensity relative to β-actin ([2]; 24 h, 20 μg/ml): 1.3 fold
cyclin D1 band intensity relative to β-actin ([2]; 24 h, 20 μg/ml): 1.3 fold
p-Her2 level (WB) ([2]; 24 h, 20 μg/ml): 0.81 fold
IκB band intensity relative to β-actin ([2]; 24 h, 40 μg/ml): 0.53 fold
IκκB band intensity relative to β-actin ([2]; 24 h, 40 μg/ml): 0.95 fold
PPAR-γ band intensity relative to β-actin ([2]; 24 h, 40 μg/ml): 0.67 fold
cyclin D1 band intensity relative to β-actin ([2]; 24 h, 40 μg/ml): 0.44 fold
p-Her2 level (WB) ([2]; 24 h, 40 μg/ml): 0.53 fold
increase in level of p-Src [2]: 1.5 fold
IC50 ([3]; Homo sapiens, MCF7, unit inferred, read-out: IC50): 20.7 µM
inhibition at 20 µg/mL ([4]; ERK2 siRNA): 79.6%
inhibition at 20 µg/mL ([4]; control siRNA): 100%
Sub G1 (%) ([5]; (a) DMEM + […] FBS 48 hrs, then actein 20 μg/ml): 1.8%
G1 (%) ([5]; (a) […] FBS, actein 20 μg/ml): 79.6%
G2/M (%) ([5]; (a) […] FBS, actein 20 μg/ml): 10.0%
S (%) ([5]; (a) […] FBS, actein 20 μg/ml): 8.5%
G1 (%) ([5]; (a) […] FBS, actein 40 μg/ml): 83.8%
G2/M (%) ([5]; (a) […] FBS, actein 40 μg/ml): 9.0%
S (%) ([5]; (a) […] FBS, actein 40 μg/ml): 4.9%
Sub G1 (%) ([5]; (a) […] FBS, actein 40 μg/ml): 2.2%
G1 (%) ([5]; (b) Actein 2 μg/mL): 69.8%
G2/M (%) ([5]; (b) Actein 2 μg/mL): 18.6%
S (%) ([5]; (b) Actein 2 μg/mL): 11.0%
Sub G1 (%) ([5]; (b) Actein 2 μg/mL): 0.9%
G1 (%) ([5]; (b) Actein 20 μg/mL): 70.8%
G2/M (%) ([5]; (b) Actein 20 μg/mL): 18.2%
S (%) ([5]; (b) Actein 20 μg/mL): 9.7%
Sub G1 (%) ([5]; (b) Actein 20 μg/mL): 1.6%
G1 (%) ([5]; (c) Actein 20 μg/mL): 59.2%
G2/M (%) ([5]; (c) Actein 20 μg/mL): 29.5%
S (%) ([5]; (c) Actein 20 μg/mL): 8.6%
Sub G1 (%) ([5]; (c) Actein 20 μg/mL): 2.7%
IC50 [6]: 11.2 µM and 16 µM
